Consider 16 molecules from patent US8975417B2, “Pyrazolopyrrolidine derivatives and their use in the treatment of disease” (Novartis AG, priority 2013, dated 2015).

One test relates to THP-1 cells. Briefly: Cell growth inhibition assay (CellTiter-Glo), THP-1. Type of test: cell-based. The conditions noted are these: Homo sapiens, read-out: THP-1 TGI. The method in brief: (§1)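 CTG luminescence (cellular ATP) after compound treatment; values background- and day 0-corrected, vehicle (0.1% DMSO) = 100%, medium only = −100%. Dose range: 3-fold dilutions from 10 μM. IC50/TGI by 4-parameter fit.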
For orientation: Cellular ATP, detected with luciferase, serves as a proxy for viable cell number.

The subject of another test is K-562 cells. Kind of test: Cell growth inhibition assay (CellTiter-Glo), K-562. Format: cell-based, human. The conditions noted are these: Homo sapiens, K562, read-out: K-562 TGI. In outline: as §1
Another test has as its system MV-4-11 cells. Kind of test: Cell growth inhibition assay (CellTiter-Glo), MV-4-11. Type of test: cell-based. The conditions noted are these: Homo sapiens, MV4-11, read-out: MV-4-11 TGI. In outline:
as §1

In a further test the target is His-Brd4(44-477) (Homo sapiens (Human), UniProt O60885). Briefly: TR-FRET in-vitro binding assay for BRD4. As to conditions: biochemical. The method in brief:
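Eight-point dilution series tested against in-house His-BRD2(60-472), BRD3(20-477) or BRD4(44-477) (45 nM in dispensed solution) binding acetyl-histone H4 (AcK5,8,12,16; 60 nM in dispensed solution). Incubation 35 min at 30 °C, pH 7.5 HEPES buffer; detection by TR-FRET using Eu-anti-His6 and streptavidin-allophycocyanin.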
A general note: In TR-FRET formats the signal depends on donor and acceptor labels being close together.

Test [1] concerns the target His-CREBBP (1081-1197) bromodomain (Homo sapiens (Human), UniProt Q92793). Kind of test: AlphaScreen in-vitro binding assay for CREBBP. The conditions noted are these: biochemical. In outline:
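Ni-chelate acceptor and streptavidin donor beads (45 µg/mL each, in 50 mM HEPES pH 7.5, 150 mM NaCl, 0.02% BSA) were then added for 60 min at room temperature. IC50 came from 8-point non-linear regression.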
On the technique in general: Alpha assays give light when donor and acceptor beads are brought close together.

Sequence of His-CREBBP (1081-1197) bromodomain (Q92793 1081-1197): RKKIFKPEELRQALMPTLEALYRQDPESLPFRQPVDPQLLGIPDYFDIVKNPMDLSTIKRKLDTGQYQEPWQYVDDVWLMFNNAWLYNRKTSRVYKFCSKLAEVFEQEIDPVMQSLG

Regarding `COc1ncc(-n2nc3c(c2C)C(c2ccc(Cl)cc2)N(c2cc(Cl)c(=O)n(C)c2)C3=O)c(OC)n1` (centres unmarked) [Example 55, 5-(5-chloro-1-methyl-6-oxo-1,6-dihydropyridin-3-yl)-4-(4-chlorophenyl)-2-(2,4-dimethoxypyrimidin-5-yl)-3-methyl-4,5-dihydropyrrolo[3,4-c]pyrazol-6(2H)-one], the figures for the IC (total growth inhibition) with THP-1 cells, in the test with K-562 cells and in the test on MV-4-11 cells were 0.364 µM, above 10 µM and 0.123 µM, respectively. In addition, the IC50 is 150 nM on His-Brd4(44-477) and 600 nM in test [1].

As to `Cc1nn(-c2ccnn2C)c2c1C(c1ccc(Cl)cc1)N(c1cc(C)c3nnc(C)n3n1)C2=O` (centres unmarked) [Example 114, 4-(4-chlorophenyl)-5-(3,8-dimethyl-[1,2,4]triazolo[4,3-b]pyridazin-6-yl)-3-methyl-1-(1-methyl-1H-pyrazol-5-yl)-4,5-dihydropyrrolo[3,4-c]pyrazol-6(1H)-one], the IC (total growth inhibition) in the test on THP-1 cells was 0.0765 µM; in the test on K-562 cells, above 10 µM; in the test with MV-4-11 cells, 0.0443 µM. Further, the IC50 was 27 nM on His-Brd4(44-477) and above 37000 nM in test [1].

On to `Cc1nn(C(=O)N(C)C)c2c1C(c1ccc(Cl)cc1)N(c1cc(C)c(=O)n(C)c1)C2=O` (centres unmarked) [Example 142, 4-(4-chlorophenyl)-5-(1,5-dimethyl-6-oxo-1,6-dihydropyridin-3-yl)-N,N,3-trimethyl-6-oxo-5,6-dihydropyrrolo[3,4-c]pyrazole-1(4H)-carboxamide], for which the IC (total growth inhibition) with THP-1 cells was 0.448 µM; with K-562 cells, above 10 µM; in the test on MV-4-11 cells it was 0.121 µM. Further, the IC50 on His-Brd4(44-477) worked out at 190 nM; in test [1], 4600 nM.

Take `Cc1ncccc1-n1nc(C)c2c1C(=O)N(c1cc(C)c(=O)n(C)c1)C2c1ccc(Cl)cc1` (centres unmarked) [Example 82, 4-(4-chlorophenyl)-5-(1,5-dimethyl-6-oxo-1,6-dihydropyridin-3-yl)-3-methyl-1-(2-methylpyridin-3-yl)-4,5-dihydropyrrolo[3,4-c]pyrazol-6(1H)-one]: the IC (total growth inhibition) is 0.406 µM with THP-1 cells, above 10 µM in the test with K-562 cells and 0.139 µM in the test on MV-4-11 cells. Also, the IC50 at His-Brd4(44-477) turned out to be 68 nM; in test [1], 6500 nM.

For `Cc1nn(C[C@H](O)C(F)(F)F)c2c1[C@@H](c1ccc(Cl)cc1)N(c1cc(C)c3nnc(C)n3c1)C2=O` [Example 167, (R)-4-(4-chlorophenyl)-5-(3,8-dimethyl-[1,2,4]triazolo[4,3-a]pyridin-6-yl)-3-methyl-1-((S)-3,3,3-trifluoro-2-hydroxypropyl)-4,5-dihydropyrrolo[3,4-c]pyrazol-6(1H)-one], the figures for the IC (total growth inhibition) in the test on THP-1 cells, with K-562 cells and with MV-4-11 cells were 0.117 µM, above 10 µM and 0.0433 µM, respectively. The figures for the IC50 (at His-Brd4(44-477); in test [1]) were 40 nM and 12000 nM, respectively.

In the case of `Cc1nn(-c2ccnn2C)c2c1C(c1ccc(Cl)cc1)N(c1cc(C)c3nnc(C)n3c1)C2=O` (centres unmarked) [Example 90, 4-(4-chlorophenyl)-5-(3,8-dimethyl-[1,2,4]triazolo[4,3-a]pyridin-6-yl)-3-methyl-1-(1-methyl-1H-pyrazol-5-yl)-4,5-dihydropyrrolo[3,4-c]pyrazol-6(1H)-one], the IC (total growth inhibition) was 0.115 µM in the test with THP-1 cells, above 10 µM in the test on K-562 cells and 0.0436 µM in the test with MV-4-11 cells. Besides, the IC50 on His-Brd4(44-477) was 15 nM; in test [1] it was above 37000 nM.

As for `CCOc1c2c(nn1C)C(=O)N(c1cc(C)c(=O)n(C)c1)C2c1ccc(Cl)cc1` (centres unmarked) [Example 76, 4-(4-chlorophenyl)-5-(1,5-dimethyl-6-oxo-1,6-dihydropyridin-3-yl)-3-ethoxy-2-methyl-4,5-dihydropyrrolo[3,4-c]pyrazol-6(2H)-one], the IC (total growth inhibition) is 0.3 µM in the test with THP-1 cells, above 10 µM in the test on K-562 cells and 0.107 µM in the test with MV-4-11 cells. Besides, the figures for the IC50 (at His-Brd4(44-477); in test [1]) were 120 nM and 2900 nM, respectively.

`CCc1nn(-c2ccnn2C)c2c1C(c1ccc(Cl)cc1)N(c1cc(C)c(=O)n(C)c1)C2=O` (centres unmarked) [Example 89, 4-(4-chlorophenyl)-5-(1,5-dimethyl-6-oxo-1,6-dihydropyridin-3-yl)-3-ethyl-1-(1-methyl-1H-pyrazol-5-yl)-4,5-dihydropyrrolo[3,4-c]pyrazol-6(1H)-one]: the figures for the IC (total growth inhibition) in the test with THP-1 cells, in the test on K-562 cells and in the test on MV-4-11 cells were 0.119 µM, above 10 µM and 0.0673 µM, respectively. Further, the IC50 at His-Brd4(44-477) was 47 nM; in test [1] it was 2500 nM.

`Cc1nn(C2CC2)c2c1[C@@H](c1ccc(Cl)cc1)N(c1cc(Cl)c(=O)n(C)c1)C2=O` [Example 51, (R)-5-(5-chloro-1-methyl-6-oxo-1,6-dihydropyridin-3-yl)-4-(4-chlorophenyl)-1-cyclopropyl-3-methyl-4,5-dihydropyrrolo[3,4-c]pyrazol-6(1H)-one]: the IC (total growth inhibition) in the test with THP-1 cells is 0.126 µM; in the test on K-562 cells, above 10 µM; in the test on MV-4-11 cells, 0.0883 µM. Also, the figures for the IC50 (at His-Brd4(44-477); in test [1]) were 20 nM and 1400 nM, respectively.

As to `CNC(=O)n1nc(C)c2c1C(=O)N(c1cc(C)c(=O)n(C)c1)C2c1ccc(Cl)cc1` (centres unmarked) [Example 143, 4-(4-chlorophenyl)-5-(1,5-dimethyl-6-oxo-1,6-dihydropyridin-3-yl)-N,3-dimethyl-6-oxo-5,6-dihydropyrrolo[3,4-c]pyrazole-1(4H)-carboxamide], the IC (total growth inhibition) is 0.621 µM in the test on THP-1 cells, above 10 µM in the test with K-562 cells and 0.116 µM in the test on MV-4-11 cells. The IC50 at His-Brd4(44-477) was 300 nM; in test [1] it was above 37000 nM.

As to `CCOC(=O)N1CC(n2nc(C)c3c2C(=O)N(c2cc(C)c4nnc(C)n4c2)C3c2ccc(Cl)cc2)C1` (centres unmarked) [Example 156, Ethyl 3-(4-(4-chlorophenyl)-5-(3,8-dimethyl-[1,2,4]triazolo[4,3-a]pyridin-6-yl)-3-methyl-6-oxo-5,6-dihydropyrrolo[3,4-c]pyrazol-1(4H)-yl)azetidine-1-carboxylate], the IC (total growth inhibition) in the test with THP-1 cells was 0.143 µM; with K-562 cells, above 10 µM; in the test on MV-4-11 cells it was 0.058 µM. Also, the IC50 at His-Brd4(44-477) was 49 nM; in test [1], above 37000 nM.

Regarding `CCc1nn(CCO)c2c1C(c1ccc(Cl)cc1)N(c1cc(C)c3onc(C)c3c1)C2=O` (centres unmarked) [Example 79, 4-(4-chlorophenyl)-5-(3,7-dimethylbenzo[d]isoxazol-5-yl)-3-ethyl-1-(2-hydroxyethyl)-4,5-dihydropyrrolo[3,4-c]pyrazol-6(1H)-one], the IC (total growth inhibition) in the test with THP-1 cells is 0.461 µM; in the test on K-562 cells, above 10 µM; with MV-4-11 cells, 0.42 µM. Moreover, the IC50 on His-Brd4(44-477) was 78 nM; in test [1] it was 11000 nM.

As for `CNC(=O)n1nc(C)c2c1C(=O)N(c1cc(C)c3nnc(C)n3c1)C2c1ccc(Cl)cc1` (centres unmarked) [Example 145, 4-(4-chlorophenyl)-5-(3,8-dimethyl-[1,2,4]triazolo[4,3-a]pyridin-6-yl)-N,3-dimethyl-6-oxo-5,6-dihydropyrrolo[3,4-c]pyrazole-1(4H)-carboxamide], the IC (total growth inhibition) in the test on THP-1 cells was 0.335 µM; in the test on K-562 cells it was above 10 µM; in the test with MV-4-11 cells it was 0.093 µM. For the same molecule, the IC50 was 140 nM on His-Brd4(44-477) and above 37000 nM in test [1].

On to `Cc1nn(C2CC2)c2c1C(c1ccc(Cl)cc1)N(c1ccc3nnn(C)c3n1)C2=O` (centres unmarked) [Example 102, 4-(4-chlorophenyl)-1-cyclopropyl-3-methyl-5-(3-methyl-3H-[1,2,3]triazolo[4,5-b]-pyridin-5-yl)-4,5-dihydropyrrolo[3,4-c]pyrazol-6(1H)-one], for which the IC (total growth inhibition) was 0.304 µM in the test with THP-1 cells, above 10 µM in the test with K-562 cells and 0.141 µM in the test with MV-4-11 cells. The values for the IC50 (at His-Brd4(44-477); in test [1]) were 59 nM and above 37000 nM, respectively.

Turning to `Cc1nn(C2CN(C)C2)c2c1C(c1ccc(Cl)cc1)N(c1cc(C)c3nnc(C)n3c1)C2=O` (centres unmarked) [Example 157, 4-(4-chlorophenyl)-5-(3,8-dimethyl-[1,2,4]triazolo[4,3-a]pyridin-6-yl)-3-methyl-1-(1-methylazetidin-3-yl)-4,5-dihydropyrrolo[3,4-c]pyrazol-6(1H)-one], the IC (total growth inhibition) in the test with THP-1 cells is 0.312 µM; in the test on K-562 cells it was above 10 µM; in the test on MV-4-11 cells it was 0.0833 µM. Further, the IC50 at His-Brd4(44-477) is 77 nM; in test [1], above 37000 nM.

With `CCc1nn(CCOC)c2c1C(c1ccc(Cl)cc1)N(c1cc(C)c3nnc(C)n3c1)C2=O` (centres unmarked) [Example 87, 4-(4-chlorophenyl)-5-(3,8-dimethyl-[1,2,4]triazolo[4,3-a]pyridin-6-yl)-3-ethyl-1-(2-methoxyethyl)-4,5-dihydropyrrolo[3,4-c]pyrazol-6(1H)-one], the IC (total growth inhibition) was 0.0598 µM in the test with THP-1 cells, above 10 µM in the test on K-562 cells and 0.0288 µM with MV-4-11 cells. For the same molecule, the IC50 at His-Brd4(44-477) was 50 nM; in test [1] it was 9800 nM.

In general, IC50 refers to the point on the concentration scale where inhibition reaches its midpoint.
